Test results: patent US20210355107A1, “MULTI-SUBSTITUTED PYRIDONE DERIVATIVES AND MEDICAL USE THEREOF” (Beijing Yuezhikangtai Biomedicines Co., Ltd., priority 2018, published 2021)

What was measured:
kinase Axl = target: T1, kinase Axl (Homo sapiens, UniProt P30530); experiment: Mobility shift assay, inhibitory activity against kinase Axl; assay type: biochemical; conditions: ATP at Km (81 μM), average of two independent experiments
T1 construct: purchased Carna 08-107
T1 sequence (P30530 473-894 limits assumed): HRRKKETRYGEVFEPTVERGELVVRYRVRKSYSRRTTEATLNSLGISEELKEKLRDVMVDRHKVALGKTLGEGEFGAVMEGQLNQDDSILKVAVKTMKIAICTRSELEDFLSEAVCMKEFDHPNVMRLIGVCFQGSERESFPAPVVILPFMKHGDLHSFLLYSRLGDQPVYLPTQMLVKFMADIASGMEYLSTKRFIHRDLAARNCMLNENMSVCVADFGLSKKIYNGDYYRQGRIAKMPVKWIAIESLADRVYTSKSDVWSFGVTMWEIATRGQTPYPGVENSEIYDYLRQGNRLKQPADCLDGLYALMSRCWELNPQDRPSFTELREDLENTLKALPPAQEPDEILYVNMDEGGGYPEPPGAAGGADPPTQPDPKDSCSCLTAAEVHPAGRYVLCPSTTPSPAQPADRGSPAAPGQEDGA
Description: (§1) In this test, mobility shift assay was used to test the inhibitory activity of compounds when ATP concentrations correspond to the Km of the kinases.
(§2) The concentration of test compound was 10-fold diluted from an initial concentration of 10 μM. The test result (IC50) was the average of two independent experiments.
(§3) For example, a compound at an initial concentration of 10 μM was adjusted to 500 μM with 100% DMSO, then serially diluted for 10 concentrations, and then subjected to 10-fold dilution with the buffer to prepare a diluted compound intermediate containing 10% DMSO, 5 μL of which was transferred to the 384-well plate.
(§4) 10 μL of the two enzyme solutions each was added to the 384-well plate and co-incubated with the compound for 10-15 min at room temperature.
(§5) 10 μL of the diluted substrate was added to the 384-well plate to initiate the reaction, which lasts for 1 h at 28° C.
(§6) 5) The conversion rate was read by Caliper Reader (Perkin Elmer) and the inhibition rate was calculated as the average of two tests.
(§7) 6) IC50 values were fitted with XL-fit software.

kinase c-MET = target: T2, kinase c-MET (Homo sapiens, UniProt P08581); experiment: Mobility shift assay, inhibitory activity against kinase c-MET; assay type: biochemical; conditions: ATP at Km (35 μM), average of two independent experiments
T2 construct: purchased Carna 08-151
T2 sequence (P08581 956-1390 limits assumed): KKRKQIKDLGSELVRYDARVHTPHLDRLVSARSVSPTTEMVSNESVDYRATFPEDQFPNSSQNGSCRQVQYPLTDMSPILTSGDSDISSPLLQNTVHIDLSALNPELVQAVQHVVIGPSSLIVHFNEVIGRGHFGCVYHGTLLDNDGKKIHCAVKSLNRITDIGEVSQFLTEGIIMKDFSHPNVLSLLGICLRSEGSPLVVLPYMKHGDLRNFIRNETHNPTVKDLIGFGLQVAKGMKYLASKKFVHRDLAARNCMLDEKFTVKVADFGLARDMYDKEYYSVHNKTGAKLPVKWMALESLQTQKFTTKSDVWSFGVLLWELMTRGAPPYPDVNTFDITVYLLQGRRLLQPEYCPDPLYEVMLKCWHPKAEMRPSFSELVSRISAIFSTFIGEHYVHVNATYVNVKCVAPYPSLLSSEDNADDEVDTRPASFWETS
Description: as §1, §2, §3, §4, §5, §6, §7

EBC-1 cells = experiment: EBC-1 cell proliferation, CellTiter-Glo Luminescent Cell Viability Assay; assay type: cell-based; conditions: Homo sapiens, 72 h incubation, read-out: IC50 (nM) against EBC-1 cells
Description: Test Example 3: Inhibitory Activity of Compounds disclosed herein against EBC-1 Cells
Test method: the inhibitory activity of the compounds against EBC-1 cell proliferation was evaluated using CellTiter-Glo® Luminescent Cell Viability Assay Kit (Promega).
Test procedures: when thawing EBC-1 cells, the cell cryopreservation tube was shaken rapidly in a water bath at 37° C. to thaw the cells in 1 min. The cell suspension after thawing was mixed with RPMI1640 culture medium containing 10% FBS and centrifuged for 5 min at 1000 rpm, and the supernatant was discarded. The cell pellet was suspended in 5 mL of complete culture medium. The suspension was placed in a cell culture flask with a bottom area of 25 cm^2, and cultured in a cell incubator at 37° C./95% humidity/5% CO2. Cell passage was performed when cell confluence reached about 80%. When the cells were passaged, the original cell suspension was directly made uniform by pipetting. 1/6 of the cell suspension was kept, added with 5 mL of new complete culture medium and then made uniform by pipetting. The cell culture flask was then placed in a cell incubator for further culturing. Cell plating was performed when the cell confluence reached about 80% again. With reference to the method for cell passage, 1/6 cell suspension was kept for further culturing when the cells were plated, and the remaining 5/6 of cell suspension was placed in a 15 mL centrifuge tube. Cell viability was detected by trypan blue exclusion using an IC1000 cell counter (Countstar) to ensure that cell viability was above 90%. Cell suspension at a density of 3.33×10^4 viable cells/mL was prepared using complete culture medium, and 90 μL of the cell suspension was added into 96-well cell culture plates, so that the cell density in the cell culture plates (day 0 plate and test compound plate) was 3000 viable cells/well. A control group that contains no cell or compound but only complete culture medium and a control group that contains no compound but cells were set. The cell plates were incubated overnight in a cell incubator. […] 10 μL of the above solution was added into a corresponding cell culture plate to ensure that the initial concentration of the compound was 10 μM, the dilution factor of adjacent concentration was 3.16, and the DMSO content in the cell culture plate was 0.1%. The cell plates were then incubated in the cell incubator for 72 h. During detection, CellTiter-Glo reagent (namely CellTiter-Glo® […] cell viability test reagent, Promega, Cat. No. G7572, Lot. No. 0000310975) was melted, and the cell plate was equilibrated at room temperature for 30 min. The cell plate was added with the CellTiter-Glo reagent at 100 μL per well, and then shaken on a QB-9001 microporous quick shaker (Kylin-Bell) for 5 min to fully lyse the cells. The cell plate was left to stand at room temperature for 20 min to stabilize luminescence signals, and the luminescence value of each well was scanned by a Spectramax M3 multi-functional microplate reader (Molecular Devices) at full wavelength.
Test samples: example compounds of the present invention and cabozantinib (positive control compound).
Data analysis: cell viability was calculated for compounds at various concentrations using the following formula:
Cell viability(%)=(Lumtest compound−Lumculture solution control)/(Lumcell control−Lumculture solution control)×100%,
where Lum refers to the luminescence value of each well of the test compound plate read by the multi-functional microplate reader.
The data were analyzed using GraphPad Prism 7.0 software, fitted with nonlinear S-curve regression to give dose-response curves, and IC50 values were calculated therefrom.

Row | Structure (SMILES) | IC50 (kinase Axl) | IC50 (kinase c-MET) | IC50 (EBC-1 cells)
1 | N#Cc1c(C2CC2)cc(C(=O)Nc2ccc(-c3cc(-c4cnn(C5CCOCC5)c4)cnc3N)c(F)c2)c(=O)n1-c1ccc(F)cc1 [Example 16, N-(4-(2-amino-5-(1-(tetrahydro-2H-pyran-4-yl)-1H-pyrazol-4-yl)pyridin-3-yl)-3-fluorophenyl)-6-cyano-5-cyclopropyl-1-(4-fluorophenyl)-2-oxo-1,2-dihydro-pyridine-3-carboxamide] | 9.8 nM | 143 nM | 
2 | C=C(C)c1cc(C(=O)Nc2ccc(-c3cc(-c4cnn(C5CCNCC5)c4)cnc3N)c(F)c2)c(=O)n(-c2ccc(F)cc2)c1C#N [Example 17, N-(4-(2-amino-5-(1-(piperidin-4-yl)-1H-pyrazol-4-yl)pyridin-3-yl)-3-fluorophenyl)-6-cyano-1-(4-fluorophenyl)-2-oxo-5-(prop-1-en-2-yl)-1,2-dihydropyridine-3-carboxamide] | 1.8 nM | 23 nM | 
3 | CC(C)n1cc(C(=O)Nc2ccc(-c3cc(-c4cnn(C5CCOCC5)c4)cnc3N)c(F)c2)c(=O)c(-c2ccc(F)cc2)c1C#N [Example 5, N-(4-(2-amino-5-(1-(tetrahydro-2H-pyran-4-yl)-1H-pyrazol-4-yl)-pyridin-3-yl)-3-fluorophenyl)-6-cyano-5-(4-fluorophenyl)-1-isopropyl-4-oxo-1,4-dihydro-pyridine-3-carboxamide] | 2.6 nM | 38 nM | 
4 | COc1cc2nccc(Oc3ccc(NC(=O)c4cc(C)c(CN)n(-c5ccc(F)cc5)c4=O)cc3F)c2cc1OC [Example 26, 6-(aminomethyl)-N-(4-((6,7-dimethoxyquinolin-4-yl)oxy)-3-fluorophenyl)-1-(4-fluorophenyl)-5-methyl-2-oxo-1,2-dihydro-1,2-dihydropyridine-3-carboxamide] | 19 nM | 19 nM | 132 nM
5 | COc1cc2nccc(Oc3ccc(NC(=O)c4cn(C5CC5)c(C#N)c(-c5ccc(F)cc5)c4=O)cc3F)c2cc1OC [Example 22, 6-cyano-N-(4-((6,7-dimethoxyquinolin-4-yl)oxy)-3-fluoro-phenyl)-5-(4-fluorophenyl)-1-cyclopropyl-4-oxo-1,4-dihydropyridine-3-carboxamide] | 5.9 nM |  | 84 nM
6 | N#Cc1c(-c2ccc(F)cc2)c(=O)c(C(=O)Nc2ccc(-c3cc(-c4cnn(C5CCNCC5)c4)cnc3N)c(F)c2)cn1C1CCC1 [Example 8, N-(4-(2-amino-5-(1-(piperidin-4-yl)-1H-pyrazol-4-yl)pyridin-3-yl)-3-fluorophenyl)-6-cyano-5-(4-fluorophenyl)-1-cyclobutyl-4-oxo-1,4-dihydropyridine-3-carboxamide] | 1.1 nM | 17 nM | 
7 | COc1cc2nccc(Oc3ccc(NC(=O)c4cc(Br)c(O)n(-c5ccc(F)cc5)c4=O)cc3F)c2cc1OC [Example 29B, 5-bromo-N-(4-((6,7-dimethoxyquinolin-4-yl)oxy)-3-fluorophenyl)-1-(4-fluorophenyl)-6-hydroxy-2-oxo-1,2-dihydropyridine-3-carboxamide] | 3.9 nM | 30 nM | 
8 | N#Cc1c(-c2ccc(F)cc2)c(=O)c(C(=O)Nc2ccc(-c3cc(-c4cnn(C5CCNCC5)c4)cnc3N)c(F)c2)cn1C1CC1 [Example 11, N-(4-(2-amino-5-(1-(piperidin-4-yl)-1H-pyrazol-4-yl)pyridin-3-yl)-3-fluorophenyl)-6-cyano-5-(4-fluorophenyl)-1-cyclopropyl-4-oxo-1,4-dihydropyridine-3-carboxamide] | 0.95 nM | 10 nM | 91 nM
9 | CC(C)n1cc(C(=O)Nc2ccc(-c3cc(-c4cnn(C5CCNCC5)c4)cnc3N)c(F)c2)c(=O)n(-c2ccc(F)cc2)c1=O [Example 20, N-(4-(2-amino-5-(1-(piperidin-4-yl)-1H-pyrazol-4-yl)pyridin-3-yl)-3-fluorophenyl)-3-(4-fluorophenyl)-1-isopropyl-2,4-dioxo-1,2,3,4-tetrahydropyrimidine-5-carboxamide] | 5.5 nM | 14 nM | 106 nM
10 | Cn1cc(-c2cnc(N)c(-c3ccc(NC(=O)c4cc(C5CC5)c(C#N)n(-c5ccc(F)cc5)c4=O)cc3F)c2)cn1 [Example 15, N-(4-(2-amino-5-(1-methyl-1H-pyrazol-4-yl)pyridin-3-yl)-3-fluorophenyl)-6-cyano-5-cyclopropyl-1-(4-fluorophenyl)-2-oxo-1,2-dihydropyridine-3-carboxamide] | 6.6 nM | 20 nM | 190 nM
11 | COCc1c(C)cc(C(=O)Nc2ccc(Oc3ccnc4cc(OC)c(OC)cc34)c(F)c2)c(=O)n1-c1ccc(F)cc1 [Example 28, 5-methyl-N-(4-((6,7-dimethoxyquinolin-4-yl)oxy)-3-fluoro-phenyl)-1-(4-fluorophenyl)-6-(methoxymethyl)-2-oxo-1,2-dihydropyridine-3-carboxamide] | 1 nM | 21 nM | 
12 | COc1cc2nccc(Oc3ccc(NC(=O)c4cc(C)c(C#N)n(-c5ccc(F)cc5)c4=O)cc3F)c2cc1OC [Example 29A, 6-cyano-N-(4-((6,7-dimethoxyquinolin-4-yl)oxy)-3-fluoro-phenyl)-1-(4-fluorophenyl)-5-methyl-2-oxo-1,2-dihydropyridine-3-carboxamide] | 3.1 nM |  | 82.7 nM
13 | COc1cc2nccc(Oc3ccc(NC(=O)c4cn(C5CCC5)c(C#N)c(-c5ccc(F)cc5)c4=O)cc3F)c2cc1OC [Example 23, 6-cyano-N-(4-((6,7-dimethoxyquinolin-4-yl)oxy)-3-fluoro-phenyl)-5-(4-fluorophenyl)-1-cyclobutyl-4-oxo-1,4-dihydropyridine-3-carboxamide] |  |  | 74 nM
14 | COc1cc2nccc(Oc3ccc(NC(=O)C4(C(=O)Nc5ccc(F)cc5)CC4)cc3)c2cc1OC [Cabozantinib, cabozantinib, reference compound] |  |  | 37 nM
15 | CCn1cc(-c2cnc(N)c(-c3ccc(NC(=O)c4cc(C5CC5)c(C#N)n(-c5ccc(F)cc5)c4=O)cc3F)c2)cn1 [Example 14, N-(4-(2-amino-5-(1-ethyl-1H-pyrazol-4-yl)pyridin-3-yl)-3-fluorophenyl)-6-cyano-5-cyclopropyl-1-(4-fluorophenyl)-2-oxo-1,2-dihydropyridine-3-carboxamide] | 12 nM | 82 nM | 
16 | COc1cc2nccc(Oc3ccc(NC(=O)c4cn(C(C)C)c(C#N)c(-c5ccc(F)cc5)c4=O)cc3F)c2cc1C#N [Example 25, 6-cyano-N-(4-((6-cyano-7-methoxyquinolin-4-yl)oxy)-3-fluoro-phenyl)-5-(4-fluorophenyl)-1-isopropyl-4-oxo-1,4-dihydropyridine-3-carboxamide] |  |  | 115 nM
